In patent publication US10159736B2, “Plant virus particles for delivery of photosensitive agents” (Case Western Reserve University, priority 2016, dated 2018):
pIC50: −log10 of the molar value.

Tests used:
B16F10 = conditions: cited from earlier work
B16F10 melanoma cells [1] = assay: MTT cell viability assay after white light illumination (Example II)
Experimental: Untreated cells and drug-free TMV carrier were used as controls. The TMV concentration was normalized to the drug-loaded concentration and corresponded to the highest amount of TMV used to determine the IC50 curves (FIG. 9A). Drug candidates and controls were incubated with B16F10 cells for 8 hours, washed, and then exposed to white light from a Vivitek D950HD projector under a rectangle (10.5 cm×11 cm) for 30 minutes. Following illumination, cells were returned to the incubator for 48 hours. Cell viability was assessed using an MTT cell viability assay and analyzed using GraphPad Prism.
Cell viability was assayed using MTT and LIVE/DEAD assays. Confluent cells were removed using 0.05% (w/v) trypsin-EDTA, added to 96-well plates (100 μL/well, 2×10^4 cells/mL), and grown overnight. Native TMV, drug loaded Zn-EpPorTMV, vs. free Zn-EpPor were added to cells using 0.025, 0.05, 0.1, 0.25, 0.5, 1.0, and 5.0 μM Zn-EpPor; cells were incubated for 8 hours at 37° C. and 5% CO2. Assays were done in triplicates and repeated at least twice. […] Cell viability was assessed using an MTT cell proliferation assay (ATCC); the procedure was as per manufacturer's recommendation. Alternatively, cell viability and cytotoxicity was determined using the LIVE/DEAD Viability/Cytotoxicity Kit for mammalian cells (ThermoFisher). […] Images were analyzed for percentage cell viability using ImageJ 1.47d.

RAW 264.7 macrophages = assay: LIVE/DEAD cell viability assay of macrophages after photodynamic therapy; format: cell-based
Experimental: Uptake of PS-CPMV* and its efficacy for PDT of RAW 264.7 murine macrophages was initially tested using a LIVE/DEAD cell viability assay in a 96-well plate. The macrophages were allowed 8 h to take up either PS-CPMV* at a concentration of 5.0 μM PS or CPMV, CPMV*, and PS controls normalized according to PS or CPMV concentration. After washing, PDT was initialized using a mirror setup where light from a projector was reflected on the cell plate for 30 min. Cells were incubated overnight, then stained with a combination of calcein-AM and ethidium homodimer-1 to detect live and dead cells, respectively (FIG. 4a).
RAW 264.7 macrophages were seeded overnight in 96-well plates, with one plate used as a dark control, at a concentration of 10,000 cells/100 μL Dulbecco's modified Eagle's medium (DMEM, Gibco) supplemented with 10% (v/v) fetal bovine serum (FBS, Atlanta Biologicals) and 1% (v/v) penicillin-streptomycin (pen-strep, Life Technologies). Cells were then incubated for 8 h at 37° C. and 5% CO2 with triplicates of CPMV, CPMV*, PS-CPMV*, or PS corresponding to 5.0 μM PS or normalized for nanoparticle concentration accordingly. […] Cell viability was determined using a LIVE/DEAD assay for mammalian cells (Thermo Fisher) following manufacturer's procedures for cell staining and using a Zeiss Axio Observer Z1 motorized FL inverted microscope for imaging. […]

B16F10 melanoma cells [2] = assay: LIVE/DEAD cell viability assay of melanoma cells; format: cell-based; conditions: 5.0 μM, 8 hours, light 30 minutes
From the text: The MTT assay is based on a yellow tetrazolium dye that is reduced to purple formazan via NAD(P)H-dependent oxidoreductase enzymes. This reduction is highly dependent on cellular metabolism in the mitochondria and is not high in cells with low cellular metabolic activity. Liu et al., Journal of neurochemistry, 69 (2), 581-93 (1997). Because photosensitizers are known to impact the functionality of the mitochondria, the MTT assay may be compromised as a result of impaired mitochondrial activity. Therefore, LIVE/DEAD cell viability assays were performed to further confirm therapeutic efficacy and cell killing. Cells were incubated with 5.0 μM of free Zn-EpPor or Zn-EpPorTMV, or corresponding controls, for 8 hours, washed, and illuminated for 30 minutes. This drug concentration was based on the MTT assay; it is over four times the IC50 value in B16F10 melanoma and should give maximal cell killing. The LIVE/DEAD assay was applied the next day, imaged, and images were analyzed using ImageJ to determine percent cell viability (FIG. 9B). […] On the contrary, cells exposed to both Zn-EpPor or Zn-EpPorTMV and light had 100% cell killing.
The staining procedure was as per manufacturer's recommendation.

B16F10 melanoma cells [3] = assay: Flow cytometry of cell uptake (Zn-EpPor fluorescence); format: cell-based; conditions: 10^6 particles/cell or corresponding amount of free drug, 8 hours
Experimental: Cell binding and uptake of the PDT delivery system was measured using both flow cytometry and confocal microscopy. […] Cell uptake was measured as a function of Zn-EpPor fluorescence (FIG. 8A). […] These studies were complemented with confocal microscopy to determine the intracellular fate of Zn-EpPor delivered by TMV. Following an 8-hour incubation of B16F10 cells with Zn-EpPorTMV particles, cells were fixed and stained with wheat germ agglutinin. Confocal fluorescence microscopy confirmed that Zn-EpPor is both taken up by the cells, and also dispersed throughout the cytoplasm (FIG. 8B), allowing it to exert their mechanism of action. The intracellular distribution of the Zn-EpPor drug was consistent with intracellular release of the cargo. We hypothesize that TMV is taken up and trafficked to the endolysosome, as previously reported. Wen et al., Bioconjugate chemistry, 26 (1), 51-62 (2015). […]
Confluent B16F10 cells were removed using Hank's based cell dissociation buffer (ThermoFisher) and added to 96-well v-bottom plates (200 μL/well, 2.5×10^6 cells/mL). […] Cells were washed 2 times, then resuspended in FACS buffer and analyzed on a BD FACSAria flow cytometer. Live cells were gated and 10,000 events were recorded; all experiments were carried out in triplicate. Data were analyzed on FlowJo 8.6.3 software.

[4] = Storage in the fridge, visual examination; format: physicochemical; conditions: stored in the fridge over a period of a month

## C=Cc1c(C)c2cc3nc(c(CC(=O)N[C@@H](CC(=O)O)C(=O)O)c4[nH]c(cc5nc(cc1[nH]2)C(C)=C5CC)c(C)c4C(=O)O)[C@@H](CCC(=O)O)[C@@H]3C [Talaporfin, talaporfin]
B16F10; B16F10, previously reported
  pIC50: 5.07

## C#Cc1ccc(C2=C3C=CC(=N3)C(c3cc[n+](C)cc3)=c3ccc4[n]3[Zn][n]3c2ccc3C(c2cc[n+](C)cc2)=C2C=CC(=N2)C=4c2cc[n+](C)cc2)cc1.[I-].[I-].[I-] [Zn-EpPor, 5-(4-ethynylphenyl)-10,15,20-tris-(4-methylpyridin-4-ium-1-yl)porphyrin-zinc(II) triiodide]
B16F10 melanoma cells [1]; 8 hours incubation, white light 30 minutes, MTT after 48 hours, concentration as Zn-EpPor
  pIC50: 6.27
B16F10 melanoma cells [1]; no illumination
  cell killing in the dark: no cell killing was observed
RAW 264.7 macrophages; 5.0 μM PS, 8 h uptake, light 30 min, staining next day
  elimination of macrophages after PDT: completely eliminating the macrophages
RAW 264.7 macrophages; absence of light therapy
  cytotoxicity in dark controls: no cytotoxicity
B16F10 melanoma cells [2]
  cell killing: 100%
B16F10 melanoma cells [3]
  mean fluorescence intensity (MFI): 956
[4]
  dispersion on storage: aggregation and sedimentation

## porfimir sodium [Photofrin]
B16F10; melanin-heavy cells, such as the B16F10 cell line
  efficacy in pigmented melanoma: ineffective
